Laboratory results reported in patent publication US6066628A, “Non-iron metalloporphyrins and methods of use” (Emory University, priority 1998, dated 2000).
Where two headings read alike, the source gives them in different places.

How the values were obtained:
F. menigosepticum = assay: Disc diffusion sensitivity test; type: cell-based, Flavobacterium meningosepticum
S. aureus [1] = assay: Minimal bactericidal concentration; type: cell-based, Staphylococcus aureus; conditions: reduces plating efficiency more than 99.9%; minimal exposure to light
Procedure, shortened: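 Bacteria exposed to porphyrin derivatives above MIC as in the MIC assay, then plated on LB or LB+Tween 80 agar. MBC taken as the concentration reducing plating efficiency by more than 99.9%; light exposure kept minimal.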

L. monocytogenes = assay: Minimal inhibitory concentration; type: cell-based; conditions: 20 to 24 hours (Table 5)
mice = assay: Preliminary toxicity testing on animals; type: in vivo
Description: (§1) To test for toxicity of MPs for mammalian cells, semiconfluent monolayers of four cell lines (MRC-5 primary human fibroblasts, Vero cells, MDCK cells and CaCO-2 cells) were incubated for 24 to 48 hours in the presence of 5, 25, 50, 250 and 400 μg/ml of Ga-PPIX dissolved in 0.02 M NaOH.
Two mice were each injected intraperitoneally with 0.5 mg gallium protoporphyrin IX and observed for 7 days. […] The animals were sacrificed, and their internal organs were microscopically examined for signs of inflammation.

MDCK cells = assay: Toxicity to mammalian cell monolayers; conditions: 0.5 mg in 1 mL DMEM; 24 hrs
M. tuberculosis = type: cell-based, Mycobacterium tuberculosis
M. smegmatis LR222 = assay: Growth kinetics with Ga-PPIX; type: cell-based, Mycobacterium smegmatis; conditions: 1 μg/ml
K. oxytoca = assay: Disc diffusion sensitivity test; type: cell-based, Klebsiella oxytoca
S. crevisieae = assay: Disc diffusion sensitivity test; type: cell-based, Saccharomyces cerevisiae; conditions: S. cerevisiae; disc ~50 μg MP
[2] = system: Y. enterocolitica fur (H1852); type: cell-based; conditions: 1 μg/ml
B. subtilis = assay: Disc diffusion sensitivity test; type: cell-based, Bacillus subtilis; conditions: B. subtilis; disc ~50 μg MP
S. aureus [3] = type: cell-based, Staphylococcus aureus
C. freundii = assay: Disc diffusion sensitivity test; type: cell-based, Citrobacter freundii
Staphylococcus xylolus = assay: Disc diffusion sensitivity test; type: cell-based; conditions: 50 μg disc
M. smegmatis = assay: Minimal bactericidal concentration; type: cell-based, Mycobacterium smegmatis; conditions: reduces plating efficiency more than 99.9%; minimal exposure to light
K. pneumoniae = assay: Disc diffusion sensitivity test; type: cell-based, Klebsiella pneumoniae
[4] = system: Streptococcus pyogenes JRS4; type: cell-based
S. marcescens = assay: Disc diffusion sensitivity test; type: cell-based, Serratia marcescens
E. coli = type: cell-based, Escherichia coli
M. bovis = type: cell-based, Mycobacterium bovis; conditions: disc ~50 μg MP
Bacillus subtilis = assay: Minimal inhibitory concentration; type: cell-based
P. mirabills = assay: Disc diffusion sensitivity test; type: cell-based, Proteus mirabilis
Y. enterocolitica = assay: Minimal bactericidal concentration; type: cell-based; conditions: reduces plating efficiency more than 99.9%; minimal exposure to light
H. pylori ATCC 43504 = assay: Minimal inhibitory concentration; type: cell-based, Helicobacter pylori; conditions: H. pylori ATCC 43504 (Table 5)
Neisseria meningitidis = assay: Minimal inhibitory concentration; type: cell-based
M tuber. H37Rv = assay: Disc diffusion sensitivity test; type: cell-based, Mycobacterium tuberculosis; conditions: disc ~50 μg MP
CaCO-2 cells = assay: Toxicity to mammalian cell monolayers; type: cell-based; conditions: 5 to 400 μg/ml; 24 to 48 hours
Description: as §1

C=CC1=C(C)C2=Cc3c(C=C)c(C)c4[n]3[Ga][n]3c(c(C)c(CCC(=O)O)c3=CC3=NC(=C4)C(C)=C3CCC(=O)O)=CC1=N2 [Ga-PPIX, Gallium (III) protoporphyrin IX chloride]
diameter (mm) of the inhibition zone (F. menigosepticum; F. meningosepticum, disc ~50 μg MP): 22 mm | sensitive strains / strains tested (inhibition zones larger or equal 20 mm) (F. menigosepticum; Flavobacterium meningosepticum, 50 μg disc): 1/1 | Minimal bactericidal concentration (MBC) (S. aureus [1]): > 13 | MIC (L. monocytogenes): 0.2 mg/L | behavior, eating habits, stress, general condition (mice; 0.5 mg intraperitoneally, 7 days): No change in behavior, eating habits and/or apparent stress or general condition were recorded | inflammation of internal organs (mice; 0.5 mg intraperitoneally, 7 days, microscopy): No visible indications of inflammation were observed | peracute or acute effect on health and behavior (mice; single intraperitoneal dose of 25 mg/kg): does not cause any peracute or acute effect on the health and behavior of mice | cytotoxic and/or morphological changes (MDCK cells): No visible cytotoxic and/or morphological changes were observed | MIC (M. tuberculosis; M. tuberculosis Rv (Table 5)): 4 mg/L | sensitivity (preliminary experiments) (M. tuberculosis; pathogenic M. tuberculosis): sensitive | growth in presence of Ga-PPIX (M. smegmatis LR222): completely prevented growth | diameter (mm) of the inhibition zone (K. oxytoca; K. oxytoca, disc ~50 μg MP): 21 mm | sensitive strains / strains tested (inhibition zones larger or equal 20 mm) (K. oxytoca; Klebsiella oxytoca, 50 μg disc): 1/1 | diameter (mm) of the inhibition zone (S. crevisieae): - | growth in presence of Ga-PPIX [2]: completely prevented growth | diameter (mm) of the inhibition zone (B. subtilis): 24 mm | MIC in Muller-Hinton broth versus NB broth (S. aureus [3]; Muller-Hinton broth): did not differ significantly | lower MIC in low iron media (S. aureus [3]; NBD with 0.1 mM dipyridyl): 2 fold | MIC (S. aureus [3]; S. aureus 8325-4 (Table 4)): < 0.1 µg/mL | MIC (S. aureus [3]; S. aureus 8325-4 (Table 6), in µg/mL): 1-2 | MIC (S. aureus [3]; S. aureus 8325-4, 20 to 24 hours (Table 5)): 1 to 2 µg/mL | MIC (S. aureus [3]; S. aureus IR2419, dark (Table 10)): 1.6 µg/mL | Minimal inhibitory concentration (MIC) (S. aureus [3]; methicillin-resistant S. aureus IR219, Nutrient broth (Table 2)): 1.6 mg/L | diameter (mm) of the inhibition zone (C. freundii; C. freundii, disc ~50 μg MP): 22 mm | sensitive strains / strains tested (inhibition zones larger or equal 20 mm) (C. freundii; Citrobacter freundii, 50 μg disc): 4/4 | sensitive strains / strains tested (inhibition zones larger or equal 20 mm) (Staphylococcus xylolus): 1/1 | Minimal bactericidal concentration (MBC) (M. smegmatis): 10 | diameter (mm) of the inhibition zone (K. pneumoniae; K. pneumoniae, disc ~50 μg MP): 22 mm | sensitive strains / strains tested (inhibition zones larger or equal 20 mm) (K. pneumoniae; Klebsiella pneumoniae, 50 μg disc): 9/13 | sensitivity [4]: resistant | diameter (mm) of the inhibition zone (S. marcescens; S. marcescens, disc ~50 μg MP): 23 mm | sensitive strains / strains tested (inhibition zones larger or equal 20 mm) (S. marcescens; Serratia marcescens, 50 μg disc): 2/3 | MIC (E. coli; E. coli DH-5 alpha hemA (Table 6)): > 10 mg/L | sensitivity (E. coli; E. coli K-12 (hemPR+) wild type and hemA mutant, with delta-aminolevulinic acid): fully sensitive | TonB dependence of inhibition (E. coli; E. coli TonB mutant overexpressing HemR): TonB activity is necessary | MIC (E. coli; E. coli dh-5 alpha hemA(hemR+) (Table 6)): < 0.1 mg/L | MIC Ga-PPIX (E. coli; EC06 (MC1061, ΔccmABCDEFGH), NB): > 20 mg/L | MIC Ga-PPIX (E. coli; EC06 (MC1061, ΔccmABCDEFGH), NBD[50 μM]): > 20 mg/L | MIC Ga-PPIX (E. coli; GO103 (GR70N, ΔcydAB), NB): 10 mg/L | MIC Ga-PPIX (E. coli; GO103 (GR70N, ΔcydAB), NBD[50 μM]): 6.4 mg/L | MIC Ga-PPIX (E. coli; GP104 (GR70N, ΔcyoABCDE), NB): 10 mg/L | MIC Ga-PPIX (E. coli; GP104 (GR70N, ΔcyoABCDE), NBD[50 μM]): 10 mg/L | MIC Ga-PPIX (E. coli; GR70N w.t., NB): 10 mg/L | MIC Ga-PPIX (E. coli; GR70N w.t., NBD[50 μM]): 10 mg/L | MIC Ga-PPIX (E. coli; IR2885 (GO104 [phemR+]), NB): < 0.2 mg/L | MIC Ga-PPIX (E. coli; IR2885 (GO104 [phemR+]), NBD[50 μM]): < 0.02 mg/L | MIC Ga-PPIX (E. coli; IR2897 (GR70N [phemR+]), NB): > 10 mg/L | MIC Ga-PPIX (E. coli; IR2897 (GR70N [phemR+]), NBD[50 μM]): < 0.1 mg/L | MIC Ga-PPIX (E. coli; IR2898 (GO103 [phemR+]), NB): < 0.2 mg/L | MIC Ga-PPIX (E. coli; IR2898 (GO103 [phemR+]), NBD[50 μM]): < 0.02 mg/L | MIC Ga-PPIX (E. coli; IR2899 (MWC215 [phemR+]), NB): > 10 mg/L | MIC Ga-PPIX (E. coli; IR2899 (MWC215 [phemR+]), NBD[50 μM]): < 0.1 mg/L | MIC Ga-PPIX (E. coli; IR2976 (EC06 [phemR+]), NB): > 30 mg/L | MIC Ga-PPIX (E. coli; IR2976 (EC06 [phemR+]), NBD[50 μM]): 0.5 mg/L | MIC Ga-PPIX (E. coli; MWC215 (GR70N, ndh), NB): 10 mg/L | MIC Ga-PPIX (E. coli; MWC215 (GR70N, ndh), NBD[50 μM]): 10 mg/L | higher MIC under iron-sufficient growth conditions (E. coli; all other mutants): 50 fold | sensitivity without an iron chelator (E. coli; cytochrome cd and cyo single mutants): still sensitive | sensitivity concentration of HemR-plasmid strains (E. coli; slight iron restriction (0.05 mM dipyridyl)): less than 0.5 μg/ml | diameter (mm) of the inhibition zone (M. bovis): 35 mm | MIC (Bacillus subtilis; B. subtilis 3G18, 20 to 24 hours (Table 5)): 0.2 mg/L | MIC (Bacillus subtilis; Bacillus subtilis (Table 4)): < 0.1 mg/L | diameter (mm) of the inhibition zone (P. mirabills; P. mirabilis, disc ~50 μg MP): 21 mm | sensitive strains / strains tested (inhibition zones larger or equal 20 mm) (P. mirabills; Proteus mirabilis, 50 μg disc): 2/2 | Minimal bactericidal concentration (MBC) (Y. enterocolitica): 6.4 | MIC (H. pylori ATCC 43504): 0.2 mg/L | MIC (Neisseria meningitidis; N. meningitidis IR1072, 20 to 24 hours (Table 5)): 0.1 mg/L | MIC (Neisseria meningitidis; Neisseria meningitidis (Table 4)): < 0.1 mg/L | diameter (mm) of the inhibition zone (M tuber. H37Rv): 20 mm | detachment or rounding of cells (CaCO-2 cells): No detachment or rounding of cells was noticed
